According to patent US20230159496A1, “COMPOUNDS AND METHODS FOR MODULATING SPLICING” (REMIX THERAPEUTICS INC., priority 2020, published 2023):
Read-outs that look alike come from different tables or passages of the source.

Legend:
Type in all cases: cell-based
Target C CJ mRNA = experiment: Gene panel canonical junction qPCR assay, Target C; settings: decrease in CJ mRNA levels, gene panel; read-out: Target C IC50
Summary of the method: (§1)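 A673 or K562 cells were treated for 24 h at 37 °C with an 11-point 3-fold dilution, top dose 10 uM, DMSO ≤0.25%. Canonical junction mRNA in lysates was quantified by one-step RT-qPCR and normalized to GAPDH, GUSB or PPIA.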

SMN2 CJ mRNA = experiment: Gene panel canonical junction qPCR assay, SMN2; settings: decrease in CJ mRNA levels, gene panel; read-out: SMN2 IC50
Summary of the method: as §1

HTT mRNA = experiment: Splicing assay (RT-qPCR) monitoring HTT canonical junction (CJ) and alternative junction (AJ) mRNA isoforms; settings: A673 or K562 cells, 24 h treatment, top dose 10 uM
Summary of the method: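 A673 or K562 cells treated 24 h at 37 °C with an 11-point 3-fold dilution (top 10 uM final, DMSO ≤0.25%). Lysates assayed by one-step RT-qPCR for HTT CJ and AJ isoforms, normalized to GAPDH, GUSB (K562) or PPIA (A673).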

HTT CJ mRNA = experiment: Gene panel canonical junction qPCR assay, HTT; settings: decrease in CJ mRNA levels, gene panel; read-out: HTT IC50
Summary of the method: as §1

[1] = decrease in CJ mRNA (50% response), read-out: HTT CJ AC50
[2] = increase in AJ mRNA (50% response), read-out: HTT AJ AC50

Row | SMILES | IC50 (Target C CJ mRNA) [nM] | IC50 (SMN2 CJ mRNA) [nM] | IC50 (HTT CJ mRNA) [nM] | AC50 (HTT mRNA; [1]) [nM] | AC50 (HTT mRNA; [2]) [nM]
1 | Cc1cn2nc(-c3ccc4c(=O)n(C5CCNC(C)(C)C5)ncc4c3)cc(C)c2n1 (stereo not drawn) [Compound 279] | 100 to 1000 | < 100 | 100 to 1000 | 100 to 1000 | 100 to 1000
2 | Cc1cn2nc(-c3ccc4c(c3)CCN([C@@H]3CCN[C@H](C)C3)C4=O)cc(C)c2n1 [Compound 281] | 1000 to 10000 | 100 to 1000 | 1000 to 10000 | 1000 to 10000 | 1000 to 10000
3 | Cc1cn2nc(-c3ccc4c(c3)CCN(C3CCN(C)C3)C4=O)cc(C)c2n1 (stereo not drawn) [Compound 282, 6-{2,8-dimethylimidazo[1,2-b]pyridazin-6-yl}-2-(1-methylpyrrolidin-3-yl)-3,4-dihydroisoquinolin-1-one] | > 10000 | 1000 to 10000 | > 10000 | > 10000 | > 10000
4 | Cc1cn2nc(-c3ccc4c(=O)n(C5CCCNCC5)ncc4c3)cc(C)c2n1 (stereo not drawn) [Compound 283, 2-(azepan-4-yl)-6-{2,8-dimethylimidazo[1,2-b]pyridazin-6-yl}phthalazin-1-one] | 100 to 1000 | < 100 | 100 to 1000 | 100 to 1000 | 100 to 1000
5 | O=c1c2ccc(-c3cn[nH]c3)cc2ncn1C1CCNCC1 [Compound 284] | > 10000 | 1000 to 10000 | > 10000 | > 10000 | > 10000
6 | Cc1nc2c(F)cc(-c3ccc4c(=O)n(C5CCNCC5)cnc4c3)cc2s1 [Compound 285] | > 10000 | < 100 | 1000 to 10000 | 1000 to 10000 | > 10000
7 | Cc1cn2cc(-c3ccc4c(=O)n(C5CCNCC5)cnc4c3)nc2c(C)n1 [Compound 286] | 1000 to 10000 | 100 to 1000 | 1000 to 10000 | 1000 to 10000 | 1000 to 10000
8 | Cc1cn2nc(-c3ccc4c(=O)n(C5CCNCC5)cnc4c3)nc2c(C)n1 [Compound 287, 7-{6,8-dimethyl-[1,2,4]triazolo[1,5-a]pyrazin-2-yl}-3-(piperidin-4-yl)quinazolin-4-one] | 100 to 1000 | < 100 | 100 to 1000 | 100 to 1000 | 100 to 1000
9 | Cc1cn2nc(-c3ccc4c(=O)n(C5CCN(C)CC5)cnc4c3)nc2c(C)n1 [Compound 288, 7-{6,8-dimethyl-[1,2,4]triazolo[1,5-a]pyrazin-2-yl}-3-(1-methylpiperidin-4-yl)quinazolin-4-one] | 1000 to 10000 | 1000 to 10000 | 1000 to 10000 | 1000 to 10000 | 1000 to 10000
10 | Cc1cn2nc(-c3ccc4c(=O)n(C5CCN(C)CC5)cnc4c3F)cc(C)c2n1 [Compound 290, 7-(2,8-dimethylimidazo[1,2-b]pyridazin-6-yl)-8-fluoro-3-(1-methylpiperidin-4-yl)quinazolin-4(3H)-one] | 100 to 1000 | 100 to 1000 | 100 to 1000 | 100 to 1000 | 100 to 1000
11 | Cc1cn2cc(-c3ccc4c(=O)n(C5CCNCC5)cnc4c3)ncc2n1 [Compound 297] | 1000 to 10000 | < 100 | 1000 to 10000 | 1000 to 10000 | 1000 to 10000

Now from value to molecule, other results behind:

Row | IC50 (Target C CJ mRNA) [nM] | IC50 (SMN2 CJ mRNA) [nM] | IC50 (HTT CJ mRNA) [nM] | SMILES | AC50 (HTT mRNA; [1]) [nM] | AC50 (HTT mRNA; [2]) [nM]
12 | > 10000 | > 10000 | > 10000 | CN1CCC(n2cnc3cc(-c4cn[nH]c4)ccc3c2=O)CC1 [Compound 299] | > 10000 | > 10000
13 | 1000 to 10000 | < 100 | 100 to 1000 | Cc1nc2c(F)cc(-c3ccc4c(=O)n(C5CCN(C)CC5)cnc4c3)cc2o1 [Compound 300] | 100 to 1000 | 1000 to 10000
14 | 1000 to 10000 | 1000 to 10000 | 1000 to 10000 | Cc1nc2c(F)cc(-c3ccc4c(=O)n(C5CCN(C)CC5)cnc4c3)cc2s1 [Compound 301] | 1000 to 10000 | 1000 to 10000
15 | 1000 to 10000 | 100 to 1000 | 1000 to 10000 | Cc1cn2cc(-c3ccc4c(=O)n(C5CCN(C)CC5)cnc4c3)nc2c(C)n1 [Compound 302] | 1000 to 10000 | 1000 to 10000
16 | 1000 to 10000 | 100 to 1000 | 1000 to 10000 | Cc1cn2nc(-c3ccc4c(=O)n(C5CCN(C)CC5)cnc4c3)cc2c(C)n1 [Compound 303] | 1000 to 10000 | 1000 to 10000
17 | 1000 to 10000 | < 100 | 100 to 1000 | CC[C@@H]1C[C@H](n2ncc3cc(-c4cc(C)c5nc(C)cn5n4)ccc3c2=O)CCN1 [Compound 304, 6-{2,8-dimethylimidazo[1,2-b]pyridazin-6-yl}-2-[(2R,4R)-2-ethylpiperidin-4-yl]phthalazin-1-one] | 1000 to 10000 | 1000 to 10000
18 | 1000 to 10000 | 100 to 1000 | 1000 to 10000 | Cc1cn2cc(-c3ccc4c(=O)n(C5CCN(C)CC5)cnc4c3)ncc2n1 [Compound 308] | 1000 to 10000 | 1000 to 10000
